For series [1], the system named is Alzheimer's disease patients. Particulars: in vivo.
Another series has as its system rodents. Conditions: through clustering of dendritic spines; cited from earlier work.
The test system of a further series is rodent models. Conditions: cited from earlier work.
The subject of series [2] is mouse model of AD (SXFAD). Conditions: early-onset aggressive mouse model of AD (SXFAD); cited from earlier work.

Results on one compound are retold here after patent publication US20240016783A1 (Icahn School of Medicine at Mount Sinai, priority 2020, published 2024).

`Nc1nc2ccc(OC(F)(F)F)cc2s1` [Riluzole, 2-Amino-6-(trifluoromethoxy)benzothiazole]: in series [1] (human, 6 months), the Abdominal discomfort turned out to be 15.4%, the “Adverse event that led to removal from the trial” value worked out at 15.4%, the Cough turned out to be 19.23% and the Diarrhea came to 15.4%. Also, in series [1] (human, 6 months), the Dizziness was 15.4%, the Elevated liver enzymes was determined as 7.7%, the Nausea turned out to be 7.7% and the “Patients having at least one adverse event during the study” value turned out to be 88.5%. Also, in series [1] (human, 6 months), the Serious adverse events is given as 7.7% and the Urinary frequency was determined as 11.5%. The “Difference in adverse events between treatment groups” value in series [1] is on record as “no statistical differences”. Moreover, the Age-related cognitive decline result in the series on rodents is reported as “can prevent age-related cognitive decline”. Further, the “Gene expression profiles related to aging and AD” value in the series on rodent models is “rescues gene expression profiles related to aging and AD”. In addition, in series [2], the “Gene expression changes in immune pathways” value is recorded as “reversed many of the gene expression changes in immune pathways” and the “Hippocampal-dependent spatial memory decline” value is “prevented hippocampal-dependent spatial memory decline”.
